Columns and labels:
Assay in all cases: Test F preemergence test
bermudagrass = format: in vivo, Cynodon dactylon; conditions: scale 0 to 100
From the text: (§1) Seeds of plant species selected from bermudagrass (Cynodon dactylon), Surinam grass (Brachiaria decumbens), large crabgrass (Digitaria sanguinalis), green foxtail (Setaria viridis), goosegrass (Eleusine indica), johnsongrass (Sorghum halepense), kochia (Kochia scoparia), pitted morningglory (Ipomoea lacunosa), purple nutsedge (Cyperus rotundus), common ragweed (Ambrosia elation), mustard (Brassica nigra), guineagrass (Panicum maximum), […] (Paspalum dilatatum), barnyardgrass (Echinochloa crus-galli), southern sandbur (Cenchrus echinatus), common sowthistle (Sonchus oleraceous), prickly […] spinosa), Italian ryegrass (Lolium multiflorum), common purslane (Portulaca oleracea), broadleaf signalgrass (Brachiaria platyphylla), common groundsel (Senecio vulgaris), common chickweed (Stellaria media), Virginia dayflower (Commelina virginica), annual bluegrass (Poa annua), naked crabgrass (Digitaria nuda), […] cochinchinensis), quackgrass (Elytrigia repens), Canada horseweed (Conyza canadensis), field bindweed (Convolvulus arvensis), […] (Bidens bipinnata), common mallow (Malva sylvestris), Russian thistle (Salsola kali), and sugarcane (Saccharum officinarum) were planted and treated preemergence with test chemicals formulated in a non-phytotoxic solvent mixture which included a surfactant. At a different time, sugarcane was treated with postemergence applications of some of the test chemicals formulated in the same manner. Plants were approximately 3- to 4-leaf stage for the postemergence treatments. Treated plants and controls were maintained in a greenhouse for 14 to 21 days, after which time all species were compared to controls and visually evaluated. […] A dash (-) response means no test result.

Surinam grass = format: in vivo, Brachiaria decumbens; conditions: scale 0 to 100
From the text: as §1

large crabgrass = format: in vivo, Digitaria sanguinalis; conditions: scale 0 to 100
From the text: as §1

green foxtail = format: in vivo, Setaria viridis; conditions: scale 0 to 100
From the text: as §1

pitted morningglory = format: in vivo, Ipomoea lacunosa; conditions: scale 0 to 100
From the text: as §1

common ragweed = format: in vivo, Ambrosia elation; conditions: scale 0 to 100
From the text: as §1

mustard = format: in vivo, Brassica nigra; conditions: scale 0 to 100
From the text: as §1

guineagrass = format: in vivo, Panicum maximum; conditions: scale 0 to 100
From the text: as §1

barnyardgrass = format: in vivo, Echinochloa crus-galli
From the text: as §1

southern sandbur = format: in vivo, Cenchrus echinatus; conditions: scale 0 to 100
From the text: as §1

prickly sida = format: in vivo, Sida spinosa; conditions: scale 0 to 100
From the text: as §1

Italian ryegrass = format: in vivo, Lolium multiflorum; conditions: scale 0 to 100
From the text: as §1

common purslane = format: in vivo, Portulaca oleracea; conditions: scale 0 to 100
From the text: as §1

annual bluegrass = format: in vivo, Poa annua; conditions: scale 0 to 100
From the text: as §1

naked crabgrass = format: in vivo, Digitaria nuda; conditions: scale 0 to 100
From the text: as §1

quackgrass = format: in vivo, Elytrigia repens; conditions: scale 0 to 100
From the text: as §1

field bindweed = format: in vivo, Convolvulus arvensis; conditions: scale 0 to 100
From the text: as §1

common mallow = format: in vivo, Malva sylvestris; conditions: scale 0 to 100
From the text: as §1

SMILES: CC(c1c(C(F)(F)F)nn(C)c1OCC(F)(F)F)S(=O)(=O)c1cccc[n+]1[O-] (racemic) [Compound 33]
- Plant response rating, Bermudagrass (bermudagrass; 16 g ai/ha, preemergence): 40
- Bermudagrass plant response rating (bermudagrass; 62 g ai/ha, Preemergence): 70
- Bermudagrass plant response rating (bermudagrass; 125 g ai/ha, preemergence): 100
- Plant response rating, Bermudagrass (bermudagrass; Preemergence, 31 g ai/ha): 60
- Plant response rating, Surinam Grass (Surinam grass; 16 g ai/ha, preemergence): 20
- Surinam Grass plant response rating (Surinam grass; 125 g ai/ha, preemergence): 100
- Plant response rating, Surinam Grass (Surinam grass; Preemergence, 31 g ai/ha): 100
- Plant response rating, Crabgrass, Large (large crabgrass; 16 g ai/ha, preemergence): 15
- Crabgrass, Large plant response rating (large crabgrass; 62 g ai/ha, Preemergence): 85
- Crabgrass, Large plant response rating (large crabgrass; 125 g ai/ha, preemergence): 100
- Plant response rating, Crabgrass, Large (large crabgrass; Preemergence, 31 g ai/ha): 35
- Plant response rating, Foxtail, Green (green foxtail; 16 g ai/ha, preemergence): 0
- Foxtail, Green plant response rating (green foxtail; 62 g ai/ha, Preemergence): 100
- Foxtail, Green plant response rating (green foxtail; 125 g ai/ha, preemergence): 100
- Plant response rating, Foxtail, Green (green foxtail; Preemergence, 31 g ai/ha): 50
- Plant response rating, Morningglory (pitted morningglory; 16 g ai/ha, preemergence): 0
- Morningglory plant response rating (pitted morningglory; 62 g ai/ha, Preemergence): 98
- Morningglory plant response rating (pitted morningglory; 125 g ai/ha, preemergence): 100
- Plant response rating, Morningglory (pitted morningglory; Preemergence, 31 g ai/ha): 15
- Plant response rating, Ragweed (common ragweed; 16 g ai/ha, preemergence): 20
- Ragweed plant response rating (common ragweed; 125 g ai/ha, preemergence): 75
- Plant response rating, Ragweed (common ragweed; Preemergence, 62 g ai/ha): 60
- Plant response rating, Ragweed (common ragweed; Preemergence, 31 g ai/ha): 40
- Plant response rating, Black Mustard (mustard; 16 g ai/ha, preemergence): 10
- Black Mustard plant response rating (mustard; 62 g ai/ha, Preemergence): 100
- Black Mustard plant response rating (mustard; 125 g ai/ha, preemergence): 100
- Plant response rating, Black Mustard (mustard; Preemergence, 31 g ai/ha): 65
- Plant response rating, Guineagrass (guineagrass; 16 g ai/ha, preemergence): 70
- Guineagrass plant response rating (guineagrass; 62 g ai/ha, Preemergence): 100
- Guineagrass plant response rating (guineagrass; 125 g ai/ha, preemergence): 100
- Plant response rating, Guineagrass (guineagrass; Preemergence, 31 g ai/ha): 100
- Plant response rating, Barnyardgrass (barnyardgrass; 16 g ai/ha, preemergence, scale 0 to 100 (0 no effect, 100 complete control)): 100
- Barnyardgrass plant response rating (barnyardgrass; 62 g ai/ha, Preemergence, scale 0 to 100): 100
- Barnyardgrass plant response rating (barnyardgrass; 125 g ai/ha, preemergence, scale 0 to 100): 100
- Plant response rating, Barnyardgrass (barnyardgrass; Preemergence, 31 g ai/ha, scale 0 to 100): 100
- Plant response rating, Sandbur (southern sandbur; 16 g ai/ha, preemergence): 100
- Sandbur plant response rating (southern sandbur; 125 g ai/ha, preemergence): 100
- Plant response rating, Sandbur (southern sandbur; Preemergence, 62 g ai/ha): 100
- Plant response rating, Sandbur (southern sandbur; Preemergence, 31 g ai/ha): 100
- Plant response rating, Prickly Sida (prickly sida; 16 g ai/ha, preemergence): 25
- Prickly Sida plant response rating (prickly sida; 62 g ai/ha, Preemergence): 90
- Prickly Sida plant response rating (prickly sida; 125 g ai/ha, preemergence): 100
- Plant response rating, Prickly Sida (prickly sida; Preemergence, 31 g ai/ha): 90
- Plant response rating, Ryegrass, Italian (Italian ryegrass; 16 g ai/ha, preemergence): 60
- Ryegrass, Italian plant response rating (Italian ryegrass; 125 g ai/ha, preemergence): 100
- Plant response rating, Ryegrass, Italian (Italian ryegrass; Preemergence, 62 g ai/ha): 100
- Plant response rating, Ryegrass, Italian (Italian ryegrass; Preemergence, 31 g ai/ha): 100
- Plant response rating, Purslane (common purslane; 16 g ai/ha, preemergence): 0
- Purslane plant response rating (common purslane; 62 g ai/ha, Preemergence): 65
- Purslane plant response rating (common purslane; 125 g ai/ha, preemergence): 100
- Plant response rating, Purslane (common purslane; Preemergence, 31 g ai/ha): 20
- Plant response rating, Bluegrass (annual bluegrass; 16 g ai/ha, preemergence): 35
- Bluegrass plant response rating (annual bluegrass; 62 g ai/ha, Preemergence): 100
- Bluegrass plant response rating (annual bluegrass; 125 g ai/ha, preemergence): 100
- Plant response rating, Bluegrass (annual bluegrass; Preemergence, 31 g ai/ha): 65
- Plant response rating, Crabgrass, Naked (naked crabgrass; 16 g ai/ha, preemergence): 75
- Crabgrass, Naked plant response rating (naked crabgrass; 62 g ai/ha, Preemergence): 100
- Crabgrass, Naked plant response rating (naked crabgrass; 125 g ai/ha, preemergence): 100
- Plant response rating, Quackgrass (quackgrass; 16 g ai/ha, preemergence): 0
- Quackgrass plant response rating (quackgrass; 62 g ai/ha, Preemergence): 75
- Quackgrass plant response rating (quackgrass; 125 g ai/ha, preemergence): 95
- Plant response rating, Quackgrass (quackgrass; Preemergence, 31 g ai/ha): 25
- Plant response rating, Field Bindweed (field bindweed; 16 g ai/ha, preemergence): 0
- Field Bindweed plant response rating (field bindweed; 62 g ai/ha, Preemergence): 50
- Field Bindweed plant response rating (field bindweed; 125 g ai/ha, preemergence): 60
- Plant response rating, Field Bindweed (field bindweed; Preemergence, 31 g ai/ha): 0
- Plant response rating, Mallow (common mallow; 16 g ai/ha, preemergence): 100
- Mallow plant response rating (common mallow; 62 g ai/ha, Preemergence): 100
- Mallow plant response rating (common mallow; 125 g ai/ha, preemergence): 100
- Plant response rating, Mallow (common mallow; Preemergence, 31 g ai/ha): 100
